As usually defined, the IC50 is the concentration that gives 50% inhibition.

The target in the test is T1, NHE-1 (Homo sapiens, UniProt P19634).
T1 construct: endogenous in cells; host or cells: HT-29
T1 sequence (P19634 whole entry): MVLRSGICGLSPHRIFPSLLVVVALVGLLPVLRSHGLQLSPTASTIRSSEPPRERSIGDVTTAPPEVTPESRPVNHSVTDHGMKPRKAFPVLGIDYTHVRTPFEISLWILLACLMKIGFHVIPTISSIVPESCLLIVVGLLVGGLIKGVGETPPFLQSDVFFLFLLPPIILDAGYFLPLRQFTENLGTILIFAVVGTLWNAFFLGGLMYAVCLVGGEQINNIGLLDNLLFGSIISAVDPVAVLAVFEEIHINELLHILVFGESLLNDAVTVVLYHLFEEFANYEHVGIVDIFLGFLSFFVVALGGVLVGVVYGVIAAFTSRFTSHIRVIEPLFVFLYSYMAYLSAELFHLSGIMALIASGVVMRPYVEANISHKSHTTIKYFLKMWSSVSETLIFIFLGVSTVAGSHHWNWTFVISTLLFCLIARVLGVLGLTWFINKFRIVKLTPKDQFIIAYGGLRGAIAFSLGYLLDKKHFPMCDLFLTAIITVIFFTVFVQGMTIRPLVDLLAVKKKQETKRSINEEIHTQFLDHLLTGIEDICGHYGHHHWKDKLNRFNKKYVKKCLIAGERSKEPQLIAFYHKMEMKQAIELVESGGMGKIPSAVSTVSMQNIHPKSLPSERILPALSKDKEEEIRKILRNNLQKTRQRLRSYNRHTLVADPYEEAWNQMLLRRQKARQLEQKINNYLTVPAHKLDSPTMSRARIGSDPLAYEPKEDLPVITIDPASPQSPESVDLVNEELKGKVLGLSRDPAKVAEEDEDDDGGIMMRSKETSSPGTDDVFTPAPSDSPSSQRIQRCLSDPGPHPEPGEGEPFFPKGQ
The experiment in a line: Evaluation of NHE-1 Inhibition (pHi) in HT-29 cells. Particulars: BCECF dye, 50% inhibition of the intracellular pH recovery, read-out: NHE1 HT29 pHi IC50. It is filed as cell-based. How it is done:
Evaluation of NHE-1 Inhibition (pHi)
HT-29 cells resuspended in DMEM supplemented with 10% FBS, 1% NEAA, and 1% Penn-Strep are seeded at 10,000 cells/well in collagen coated 384 well plates which are then incubated for 24 hours at 37° C. The next day, the medium is removed and the cells are dye (Invitrogen's BCECF) loaded for 30 minutes at 37° C., washed three times with an acid loading buffer (10 mM NH4Cl, 1.8 mM CaCl2, 90 mM Choline Cl, 5 mM Glucose, 15 mM Hepes, 5 mM KCl, 1 mM MgCl2, adjusted to pH 7.5 with KOH) and further incubated at RT for 30 minutes.
At the end of the incubation, the buffer is removed and 5 uL of fresh acid loading buffer is added to each well to prevent the dessication of the cells. The plate is placed in a Hamamatsu FDSS6000 instrument and candidate compounds are added to the cells.
For the compound `COc1ccc(CC(N)C(=O)N2CCC(c3ccc(C(=O)NC(=N)N)cc3C(F)(F)F)CC2)cc1` (stereo not drawn), the IC50 came to 37 nM.
For `N=C(N)NC(=O)c1ccc(C2CCN(C(=O)c3ccc(Cl)c(S(N)(=O)=O)c3)CC2)c(C(F)(F)F)c1` [2-Chloro-5-[4-(4-guanidinocarbonyl-2-trifluoromethyl-phenyl)-piperidine-1-carbonyl]-benzenesulfonamide], the IC50 is 13 nM.
Turning to `N=C(N)NC(=O)c1ccc(C2CCN(C(=O)C(N)CC(N)=O)CC2)c(C(F)(F)F)c1` (stereo not drawn) [3-Amino-4-[4-(4-guanidinocarbonyl-2-trifluoromethyl-phenyl)-piperidin-1-yl]-4-oxo-butyramide], the IC50 is 15 nM.
In the case of `N=C(N)NC(=O)c1ccc(C2CCN(C(N)=O)CC2)c(C(F)(F)F)c1` [4-(4-Guanidinocarbonyl-2-trifluoromethyl-phenyl)-piperidine-1-carboxylic acid amide], the IC50 turned out to be 6 nM.
As for `CN(C)C(=O)N1CCC(c2ccc(C(=O)NC(=N)N)cc2C(F)(F)F)CC1` [4-(4-Guanidinocarbonyl-2-trifluoromethyl-phenyl)-piperidine-1-carboxylic acid dimethylamide], the IC50 turned out to be 10 nM.
As to `CN(C)C(=O)c1ccc(C(=O)N2CCC(c3ccc(C(=O)NC(=N)N)cc3C(F)(F)F)CC2)cc1` [4-[4-(4-Guanidinocarbonyl-2-trifluoromethyl-phenyl)-piperidine-1-carbonyl]-N,N-dimethyl-benzamide], the IC50 was 48 nM.
Turning to `CN(C)S(=O)(=O)c1ccc(C(=O)N2CCC(c3ccc(C(=O)NC(=N)N)cc3C(F)(F)F)CC2)cc1` [4-[4-(4-Guanidinocarbonyl-2-trifluoromethyl-phenyl)-piperidine-1-carbonyl]-N,N-dimethyl-benzenesulfonamide], the IC50 came out at 36 nM.
In the case of `CNC(=O)c1ccc(C(=O)N2CCC(c3ccc(C(=O)NC(=N)N)cc3C(F)(F)F)CC2)cc1` [4-[4-(4-Guanidinocarbonyl-2-trifluoromethyl-phenyl)-piperidine-1-carbonyl]-N-methyl-benzamide], the IC50 worked out at 43 nM.
Take `CNS(=O)(=O)c1ccc(C(=O)N2CCC(c3ccc(C(=O)NC(=N)N)cc3C(F)(F)F)CC2)cc1` [4-[4-(4-Guanidinocarbonyl-2-trifluoromethyl-phenyl)-piperidine-1-carbonyl]-N-methyl-benzenesulfonamide]: the IC50 amounted to 51 nM.
On to `N=C(N)NC(=O)c1ccc(C2CCN(C(=O)c3ccc(C(N)=O)cc3)CC2)c(C(F)(F)F)c1` [4-[4-(4-Guanidinocarbonyl-2-trifluoromethyl-phenyl)-piperidine-1-carbonyl]-benzamide], for which the IC50 amounted to 28 nM.
In the case of `N=C(N)NC(=O)c1ccc(C2CCN(C(=O)c3ccc(S(N)(=O)=O)cc3)CC2)c(C(F)(F)F)c1` [4-[4-(4-Guanidinocarbonyl-2-trifluoromethyl-phenyl)-piperidine-1-carbonyl]-benzenesulfonamdide], the IC50 is 13 nM.
`COC(=O)c1ccc(C(=O)N2CCC(c3ccc(C(=O)NC(=N)N)cc3C(F)(F)F)CC2)cc1` [4-[4-(4-Guanidinocarbonyl-2-trifluoromethyl-phenyl)-piperidine-1-carbonyl]-benzoic acid methyl ester]: the IC50 amounted to 183 nM.
Take `N=C(N)NC(=O)c1ccc(C2CCN(C(=O)c3ccc(C(=O)O)cc3)CC2)c(C(F)(F)F)c1` [4-[4-(4-Guanidinocarbonyl-2-trifluoromethyl-phenyl)-piperidine-1-carbonyl]-benzoic acid]: the IC50 was 27 nM.
For the compound `CNS(=O)(=O)c1ccc(Oc2ccc(C(=O)N3CCC(c4ccc(C(=O)NC(=N)N)cc4C(F)(F)F)CC3)cn2)cc1` [4-{5-[4-(4-Guanidinocarbonyl-2-trifluoromethyl-phenyl)-piperidine-1-carbonyl]-pyridin-2-yloxy}-N-methyl-benzenesulfonamide], the IC50 came out at 92 nM.
In the case of `COc1cc(C2CCN(C(=O)[C@H](OC(C)=O)c3ccccc3)CC2)c(C(F)(F)F)cc1C(=O)NC(=N)N` [(R)-Acetic acid 2-[4-(4-guanidinocarbonyl-5-methoxy-2-trifluoromethyl-phenyl)-piperidin-1-yl]-2-oxo-1-phenyl-ethyl ester], the IC50 amounted to 110 nM.
On to `Cn1cnc(C[C@@H](N)C(=O)N2CCC(c3ccc(C(=O)NC(=N)N)cc3C(F)(F)F)CC2)c1` [(R)-N-(4-{1-[-2--Amino-3-(1-methyl-1H-imidazol-4-yl)-propionyl]-piperidin-4-yl}-3-trifluoromethyl-benzoyl)-guanidine], for which the IC50 amounted to 43 nM.
On to `N=C(N)NC(=O)c1ccc(C2CCN(C(=O)[C@H](N)c3ccccc3)CC2)c(C(F)(F)F)c1` [(R)-N-{4-[1-(2-Amino-2-phenyl-acetyl)-piperidin-4-yl]-3-trifluoromethyl-benzoyl}-guanidine], for which the 50% inhibitory concentration (IC50) turned out to be 24 nM.
The same measure for `N=C(N)NC(=O)c1ccc([C@H]2CCN(C(=O)c3ccc(F)cc3)C2)c(C(F)(F)F)c1` [(R)-N-{4-[1-(4-fluoro-benzoyl)-pyrrolidin-3-yl]-3-trifluoromethyl-benzoyl}-guanidine]: 24 nM.
`C[C@@](N)(Cc1ccccc1)C(=O)N1CCC(c2ccc(C(=O)NC(=N)N)cc2C(F)(F)F)CC1` [(R)-N-{4-[1-(-2--Amino-2-methyl-3-phenyl-propionyl)-piperidin-4-yl]-3-trifluoromethyl-benzoyl}-guanidine]: the IC50 is 24 nM.
The value for `N=C(N)NC(=O)c1ccc([C@H]2CCN(C(=O)c3ccco3)C2)c(C(F)(F)F)c1` [(R)-N-{4-[1-(Furan-2-carbonyl)-pyrrolidin-3-yl]-3-trifluoromethyl-benzoyl}-guanidine] was 28 nM; that for `N=C(N)NC(=O)c1ccc(C2CCN(C(=O)[C@@H](N)CC(=O)O)CC2)c(C(F)(F)F)c1` [(S)-3-Amino-4-[4-(4-guanidinocarbonyl-2-trifluoromethyl-phenyl)-piperidin-1-yl]-4-oxo-butyric acid] was 9 nM.
For `COc1cc(C2CCN(C(=O)[C@@H](OC(C)=O)c3ccccc3)CC2)c(C(F)(F)F)cc1C(=O)NC(=N)N` [(S)-Acetic acid 2--[4-(4-guanidinocarbonyl-5-methoxy-2-trifluoromethyl-phenyl)-piperidin-1-yl]-2-oxo-1-phenyl-ethyl ester], the IC50 was found to be 92 nM.
For `Cn1cnc(C[C@H](N)C(=O)N2CCC(c3ccc(C(=O)NC(=N)N)cc3C(F)(F)F)CC2)c1` [(S)-N-(4-{1-[2-Amino-3-(1-methyl-1H-imidazol-4-yl)-propionyl]-piperidin-4-yl}-3-trifluoromethyl-benzoyl)-guanidine], the IC50 is 49 nM.
`Cn1cncc1C[C@H](N)C(=O)N1CCC(c2ccc(C(=O)NC(=N)N)cc2C(F)(F)F)CC1` [(S)-N-(4-{1-[2-Amino-3-(3-methyl-3H-imidazol-4-yl)-propionyl]-piperidin-4-yl}-3-trifluoromethyl-benzoyl)-guanidine]: the IC50 turned out to be 22 nM.
Regarding `COc1cc(C2CCN(C(=O)[C@@](C)(O)c3ccccc3)CC2)c(C(F)(F)F)cc1C(=O)NC(=N)N` [(S)-N-{4-[1-(2-Hydroxy-2-phenyl-propionyl)-piperidin-4-yl]-2-methoxy-5-trifluoromethyl-benzoyl}-guanidine], the IC50 turned out to be 200 nM.
`N=C(N)NC(=O)c1ccc(C2CCN(C(=O)[C@@H](N)c3ccccc3)CC2)c(C(F)(F)F)c1` [(S)-N-{4-[1-(-2-Amino-2-phenyl-acetyl)-piperidin-4-yl]-3-trifluoromethyl-benzoyl}-guanidine]: the IC50 was determined as 21 nM.
As for `C[S+]([O-])CC[C@H](N)C(=O)N1CCC(c2ccc(C(=O)NC(=N)N)cc2C(F)(F)F)CC1` (stereo partly drawn) [(S)-N-{4-[1-(-2-Amino-4-methanesulfinyl-butyryl)-piperidin-4-yl]-3-trifluoromethyl-benzoyl}-guanidine], the IC50 was 12 nM.
Turning to `N=C(N)NC(=O)c1ccc(C2CCN(C(=O)[C@@H]3CCC(=O)N3)CC2)c(C(F)(F)F)c1` [(S)-N-{4-[1-(-5-Oxo-pyrrolidine-2-carbonyl)-piperidin-4-yl]-3-trifluoromethyl-benzoyl}-guanidine], the IC50 was found to be 11 nM.
As for `N=C(N)NC(=O)c1ccc([C@@H]2CCN(C(=O)c3ccc(F)cc3)C2)c(C(F)(F)F)c1` [(S)-N-{4-[-1-(4-fluoro-benzoyl)-pyrrolidin-3-yl]-3-trifluoromethyl-benzoyl}-guanidine], the IC50 was determined as 18 nM.
`N=C(N)NC(=O)c1ccc([C@@H]2CCN(C(=O)c3ccco3)C2)c(C(F)(F)F)c1` [(S)-N-{4-[-1-(Furan-2-carbonyl)-pyrrolidin-3--yl]-3-trifluoromethyl-benzoyl}-guanidine]: the IC50 was 17 nM.
As for `Cc1cc(C2CCN(C(=O)CN3CCCC3=O)CC2)c(C(F)(F)F)cc1C(=O)NC(=N)N` [N-(2-Methyl-4-{1-[2-(2-oxo-pyrrolidin-1-yl)-acetyl]-piperidin-4-yl}-5-trifluoromethyl-benzoyl)-guanidine], the IC50 turned out to be 37 nM.
The value for `CS(=O)(=O)c1ccccc1Oc1cc(C(=O)N2CCC(c3ccc(C(=O)NC(=N)N)cc3C(F)(F)F)CC2)ccn1` [N-(4-{1-[2-(2-Methanesulfonyl-phenoxy)-pyridine-4-carbonyl]-piperidin-4-yl}-3-trifluoromethyl-benzoyl)-guanidine] was 76 nM.
As to `COc1ccccc1-c1cc(C(=O)N2CCC(c3ccc(C(=O)NC(=N)N)cc3C(F)(F)F)CC2)ccn1` [N-(4-{1-[2-(2-Methoxy-phenyl)-pyridine-4-carbonyl]-piperidin-4-yl}-3-trifluoromethyl-benzoyl)-guanidine], the half-maximal inhibitory concentration (IC50) came out at 200 nM.

Values taken from patent publication US20110118262A1, “Pyrrolidinyl and Piperidinyl Compounds Useful as NHE-1 Inhibitiors” (BOEHRINGER INGELHEIM INTERNATIONAL GMBH, priority 2008, published 2011).
